# Measurements reported in patent US20040048834A1, “Antitumoral compounds” (priority 2000, published 2004).
# Tests used:
# Type in all cases: cell-based
# PC-3 = test: Cytotoxicity MTS, solid tumors, Prostate PC-3; conditions: 4-Parameter Curve Fit, NA = not active
# FADU = test: Cytotoxicity MTS, solid tumors, Pharynx FADU; conditions: 4-Parameter Curve Fit, NA = not active
# SW 694 = test: Cytotoxicity MTS, solid tumors, Fibrosarcoma SW 694; conditions: 4-Parameter Curve Fit, NA = not active
# Mel-28 = test: Cytotoxicity MTS, solid tumors, Melanoma Mel-28; conditions: 4-Parameter Curve Fit, NA = not active
# 5637 = test: Cytotoxicity MTS, solid tumors, Bladder 5637; conditions: 4-Parameter Curve Fit, NA = not active
# NCI-H187 = test: Cytotoxicity MTS, solid tumors, SCL NCI-H187; conditions: 4-Parameter Curve Fit, NA = not active
# OSA-FH = test: Cytotoxicity MTS, solid tumors, Osteosarcoma OSA-FH; conditions: 4-Parameter Curve Fit, NA = not active
# PANC-1 = test: Cytotoxicity MTS, solid tumors, Pancreas PANC-1; conditions: 4-Parameter Curve Fit, NA = not active
# DU-145 = test: Cytotoxicity MTS, solid tumors, Prostate DU-145; conditions: 4-Parameter Curve Fit, NA = not active
# HT-29 = test: Cytotoxicity MTS, solid tumors, Colon HT-29; conditions: 4-Parameter Curve Fit, NA = not active
# LNCAP = test: Cytotoxicity MTS, solid tumors, Prostate LNCAP; conditions: 4-Parameter Curve Fit, NA = not active
# A549 = test: Cytotoxicity MTS, solid tumors, NSCL A549; conditions: 4-Parameter Curve Fit, NA = not active
# CHSA = test: Cytotoxicity MTS, solid tumors, Chondrosarcoma CHSA; conditions: 4-Parameter Curve Fit, NA = not active
# Y-79 = test: Cytotoxicity MTS, solid tumors, Retinoblastoma Y-79; conditions: 4-Parameter Curve Fit, NA = not active
# MX-1 = test: Cytotoxicity MTS, solid tumors, Breast MX-1; conditions: 4-Parameter Curve Fit, NA = not active
# 786-O = test: Cytotoxicity MTS, solid tumors, Renal 786-O; conditions: 4-Parameter Curve Fit, NA = not active
# Hs746t = test: Cytotoxicity MTS, solid tumors, Gastric Hs746t; conditions: 4-Parameter Curve Fit, NA = not active
# SK-HEP-1 = test: Cytotoxicity MTS, solid tumors, Liver SK-HEP-1; conditions: 4-Parameter Curve Fit, NA = not active
# Hut 78 = test: Cytotoxicity MTS, leukemias/lymphomas, Hut 78; conditions: 4-Parameter Curve Fit, NA = not active, read-out: Cytotoxicity IC50 Lymphoma (Cutaneous T cell) Hut 78
# Molt 3 = test: Cytotoxicity MTS, leukemias/lymphomas, Molt 3; conditions: 4-Parameter Curve Fit, NA = not active, read-out: Cytotoxicity IC50 ALL (Acute lymphobalstic) Molt 3
# MC116 = test: Cytotoxicity MTS, leukemias/lymphomas, MC116; conditions: 4-Parameter Curve Fit, NA = not active, read-out: Cytotoxicity IC50 Lymphoma (undifferentiated) MC116
# RAMOS = test: Cytotoxicity MTS, leukemias/lymphomas, RAMOS; conditions: 4-Parameter Curve Fit, NA = not active, read-out: Cytotoxicity IC50 Lymphoma (Burkitts B cell) RAMOS
# H9 = test: Cytotoxicity MTS, leukemias/lymphomas, H9; conditions: 4-Parameter Curve Fit, NA = not active, read-out: Cytotoxicity IC50 Lymphoma (T cell) H9
# HL-60 = test: Cytotoxicity MTS, leukemias/lymphomas, HL-60; conditions: read-out: Cytotoxicity IC50 AML (acute promyelocytic leukemia) HL-60, 4-Parameter Curve Fit, NA = not active, read-out: Cytotoxicity IC50 ALL (Promyelocytic leukemia) HL-60
structure (smiles),measurement,setting,value
CCCCCCCCCCCCCCCC[C@@H](O)[C@H](C)N [drawing 113],IC50,PC-3,0.086 µM
same,IC50,FADU,0.0103 µM
same,IC50,SW 694,6.49 µM
same,IC50,Mel-28,7.21 µM
same,IC50,5637,0.0472 µM
same,IC50,NCI-H187,0.163 µM
same,IC50,OSA-FH,0.183 µM
same,IC50,PANC-1,0.167 µM
same,IC50,DU-145,0.0739 µM
same,IC50,HT-29,0.0643 µM
same,IC50,LNCAP,0.0444 µM
same,IC50,A549,0.0343 µM
same,IC50,CHSA,0.018 µM
same,IC50,Y-79,4.65 µM
CCCCCCCCCCCCCCCCC[C@@H](O)[C@H](C)N [drawing 114],IC50,PC-3,0.049 µM
same,IC50,FADU,0.0812 µM
same,IC50,SW 694,10.4 µM
same,IC50,5637,6.34 µM
same,IC50,NCI-H187,7.17 µM
same,IC50,OSA-FH,8.6 µM
same,IC50,PANC-1,0.722 µM
same,IC50,DU-145,9.86 µM
same,IC50,HT-29,9.07 µM
same,IC50,LNCAP,7.69 µM
same,IC50,A549,9.79 µM
same,IC50,CHSA,1.58 µM
CCCCCCCCCCCCCC[C@@H](O)[C@H](C)N [drawing 115],IC50,PC-3,0.379 µM
same,IC50,FADU,0.0784 µM
same,IC50,SW 694,10.1 µM
same,IC50,Mel-28,10.3 µM
same,IC50,5637,0.0365 µM
same,IC50,PANC-1,0.0864 µM
same,IC50,DU-145,0.201 µM
same,IC50,HT-29,0.264 µM
same,IC50,LNCAP,0.0715 µM
same,IC50,A549,10.1 µM
same,IC50,CHSA,9.65 µM
CCCCCCCCCCCCCCC[C@@H](O)[C@@H](N)CC [drawing 116],IC50,PC-3,10.2 µM
same,IC50,FADU,0.225 µM
same,IC50,SW 694,7.57 µM
same,IC50,Mel-28,9.4 µM
same,IC50,5637,7.8 µM
same,IC50,NCI-H187,7.29 µM
same,IC50,OSA-FH,8.52 µM
same,IC50,PANC-1,0.186 µM
same,IC50,DU-145,0.0755 µM
same,IC50,HT-29,9.11 µM
same,IC50,LNCAP,6.35 µM
same,IC50,A549,10.3 µM
same,IC50,CHSA,8.94 µM
same,IC50,Y-79,9.51 µM
CCCCCCCCCCCCCC[C@@H](O)[C@H](C)N [drawing 117],IC50,FADU,19.6 µM
same,IC50,5637,3.26 µM
same,IC50,A549,49 µM
CCCCCCCCCCCCCCCC(=O)[C@H](C)N [drawing 118],IC50,MX-1,2.84 µM
same,IC50,NCI-H187,3.55 µM
same,IC50,786-O,0.162 µM
same,IC50,Y-79,12.1 µM
CCCCCCCCCCCCCCCCC(=O)[C@H](C)N [drawing 119],IC50,MX-1,14.9 µM
same,IC50,5637,29.9 µM
same,IC50,OSA-FH,14.9 µM
CCCCCCCCCCCCCCCCCC(=O)[C@H](C)N [drawing 120],IC50,FADU,14.3 µM
same,IC50,A549,20.1 µM
CCCCCCCCCCCCCCCC(=O)[C@@H](N)CC [drawing 121],IC50,FADU,2.99 µM
same,IC50,MX-1,1.72 µM
same,IC50,5637,1.58 µM
same,IC50,786-O,59.8 µM
CCCCCCCCCCCCCCC[C@@H](O)[C@@H](N)CF [drawing 122],IC50,PC-3,21.8 µM
same,IC50,FADU,3.96 µM
same,IC50,Mel-28,2.54 µM
same,IC50,Hs746t,16.2 µM
same,IC50,SK-HEP-1,15.5 µM
same,IC50,MX-1,4.29 µM
same,IC50,5637,1.45 µM
same,IC50,786-O,3.3 µM
same,IC50,DU-145,0.0495 µM
same,IC50,CHSA,4.62 µM
same,IC50,Y-79,1.65 µM
CCCCCCCCCCCCCCC(O)C(C)N (stereo not shown) [drawing 126],IC50,Hut 78,8.81 µM
same,IC50,Molt 3,0.00983 µM
same,IC50,MC116,9.58 µM
CCCCCCCCCCCCCCCC(O)C(N)CC (stereo not shown) [drawing 127],IC50,Hut 78,9.15 µM
same,IC50,Molt 3,0.0376 µM
CCCCCCCCCCCCCCC(O)C(C)N (stereo not shown) [drawing 128],IC50,Molt 3,26.1 µM
CCCCCCCCCCCCCCCCCC(=O)[C@H](C)N [drawing 131],IC50,RAMOS,1.65 µM
same,IC50,H9,2.59 µM
same,IC50,Molt 3,14.3 µM
CCCCCCCCCCCCCCC[C@@H](O)[C@@H](N)CF [drawing 133],IC50,HL-60,1.29 µM
